Results from patent US11478460B2, “Diaryl substituted 6,5-fused ring compounds as C5aR inhibitors” (CHEMOCENTRYX, INC., priority 2017, dated 2022).

The molecules below were run against C5aR (Homo sapiens (Human), UniProt P21730) (assay: Chemotaxis assay using U937 cells (C5aR mediated migration)). Settings: read-out: Mig IC50.
C5aR, sequence (P21730 whole entry): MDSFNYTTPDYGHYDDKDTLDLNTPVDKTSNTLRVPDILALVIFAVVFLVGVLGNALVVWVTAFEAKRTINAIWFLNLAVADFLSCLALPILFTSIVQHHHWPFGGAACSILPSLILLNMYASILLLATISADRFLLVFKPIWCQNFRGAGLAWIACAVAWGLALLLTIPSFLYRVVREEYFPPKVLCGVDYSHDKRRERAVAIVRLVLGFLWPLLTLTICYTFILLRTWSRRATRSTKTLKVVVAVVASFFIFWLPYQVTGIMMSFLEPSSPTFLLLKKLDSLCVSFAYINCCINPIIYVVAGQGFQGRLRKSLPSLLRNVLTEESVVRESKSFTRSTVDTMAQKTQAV
Assay type: cell-based
How it was run: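 Migration toward 0.03 nM C5a, mixed with varying compound in the lower chamber (HBSS with 1% FBS), was measured over 1.5 h at 37° C through 5 μm filters. Upper chamber held 100,000 U937 cells treated overnight with 0.5 mM cAMP; migrated cells quantified by counts or CyQuant for IC50, SDF-1α as specificity control.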
In the case of `Cc1cc(F)c(C(C)C)cc1N1CCc2nn(-c3c(C)cccc3OCC(C)C)c(-c3ccc(NC(N)=O)cc3)c2C1` [Example 1.427], the IC50 is reported as ≤ 5 nM.
In the case of `CCc1cccc(CC)c1-n1nc2c(c1-c1cc(F)c(NC(N)=O)cc1F)CN(Cc1ccc(F)cc1C(F)(F)F)C(C)(C)C2` [Example 1.012], the IC50 is reported as ≤ 5 nM.
In the case of `Cc1cccc(OCC(C)C)c1-n1nc2c(c1-c1ccc(NC(N)=O)c(F)c1)CN(CC(C)C(F)(F)F)CC2` (centres unmarked) [Example 1.262], the IC50 is reported as ≤ 5 nM.
In the case of `CCc1cccc(CC)c1-n1nc2c(c1-c1cc(F)c(NC(N)=O)cc1F)CN(Cc1ccccc1C(F)(F)F)CC2` [Example 1.067], the IC50 is reported as ≤ 5 nM.
In the case of `CCc1cccc(CC)c1-n1nc2c(c1-c1cc(F)c(NC(N)=O)cc1F)CN(c1ncc(Cl)cc1Cl)CC2` [Example 1.201], the IC50 is reported as ≤ 5 nM.
For `Cc1cccc(OCC(C)C)c1-n1nc2c(c1-c1cc(F)c(NC(N)=O)cc1F)CN(C(C)(C)C#N)CC2` [Example 1.209], the IC50 was 50 to 500 nM.
`Cc1cccc(OCC(C)C)c1-n1nc2c(c1-c1ccc(NC(N)=O)c(F)c1)CN(C(C)C1CCCCC1)CC2` (centres unmarked) [Example 1.232] was tested, and the IC50 was ≤ 5 nM.
For `Cc1cccc(OCC(C)C)c1-n1nc2c(c1-c1ccc(NC(N)=O)cc1)CN(Cc1c(Cl)cccc1C(F)(F)F)CC2` [Example 1.362], the IC50 was ≤ 5 nM.
For `Cc1cccc(C)c1CN1CCc2nn(-c3c(C)cccc3OCC(C)C)c(-c3ccc(NC(N)=O)cc3)c2C1` [Example 1.376], the IC50 was 5 to 50 nM.
With `CCc1cccc(CC)c1-n1nc2c(c1-c1cc(F)c(NC(N)=O)cc1F)CN(Cc1ccccc1)C(C)C2` (centres unmarked) [Example 1.151] the IC50 was ≤ 5 nM.
`CCC(c1ccccc1)N1CCc2nn(-c3c(C)cccc3OCC(C)C)c(-c3cc(F)c(NC(N)=O)cc3F)c2C1` (centres unmarked) [Example 1.145] was tested, and the IC50 was ≤ 5 nM.
For `Cc1cnc(N2CCc3nn(-c4c(C)cccc4OCC(C)C)c(-c4cc(F)c(NC(N)=O)cc4F)c3C2)c(Cl)c1` [Example 1.190], the IC50 was ≤ 5 nM.
`Cc1cccc(OCC(C)C)c1-n1nc2c(c1-c1ccc(NC(N)=O)cc1)CN(C(C)c1ccc(C(F)(F)F)cc1)CC2` (centres unmarked) [Example 1.306] was tested, and the IC50 was ≤ 5 nM.
`CCc1cccc(CC)c1-n1nc2c(c1-c1cc(F)c(NC(N)=O)cc1F)CN(C(CC)c1ccccc1)CC2` (centres unmarked) [Example 1.162] was tested, and the IC50 was ≤ 5 nM.
In the case of `Cc1cccc(OCC(C)C)c1-n1nc2c(c1-c1ccc(NC(N)=O)cc1)CN(Cc1ccc(C(F)(F)F)cc1C(F)(F)F)CC2` [Example 1.357], the IC50 is reported as ≤ 5 nM.
`COc1cccc(C)c1-n1nc2c(c1-c1ccc(N)cc1)CN(c1cc(C(C)(C)C)ccc1C)CC2` [Example 1.469] showed an IC50 of 50 to 500 nM.
For `CCc1cccc(CC)c1-n1nc2c(c1-c1cc(F)c(NC(N)=O)cc1F)CN(Cc1ccc(OC)cc1C(F)(F)F)CC2` [Example 1.053], the IC50 was ≤ 5 nM.
For `Cc1ccc(C(F)(F)F)cc1N1CCc2nn(-c3c(C)cccc3OCC(C)C)c(-c3ccc(NC(N)=O)cc3)c2C1` [Example 1.418], the IC50 was 5 to 50 nM.
`CCc1cccc(CC)c1-n1nc2c(c1-c1ccc(NC(N)=O)cc1)CN(C(c1ccccc1C(F)(F)F)C(C)C)CC2` (centres unmarked) [Example 1.281] was tested, and the IC50 was ≤ 5 nM.
`Cc1cccc(OCC(C)C)c1-n1nc2c(c1-c1ccc(NC(N)=O)cc1)CN(c1ncc(C(F)(F)F)cn1)CC2` [Example 1.352] was tested, and the IC50 was 5 to 50 nM.
`Cc1ccc(C(C)(C)C)cc1N1CCc2nn(-c3c(C)cccc3OCC(C)C)c(-c3ccc(N)cc3)c2C1` [Example 1.458] showed an IC50 of 5 to 50 nM.
In the case of `Cc1cnc(N2CCc3nn(-c4c(C)cccc4OCC(C)C)c(-c4ccc(NC(N)=O)c(F)c4)c3C2)c(F)c1` [Example 1.224], the IC50 is reported as ≤ 5 nM.
Work on `Cc1cccc(C)c1-n1nc2c(c1-c1cc(F)c(NC(N)=O)cc1F)CN(Cc1ccc(C(F)(F)F)cc1C(F)(F)F)CC2` [Example 1.060] yielded an IC50 of 5 to 50 nM.
Molecule `CCc1cccc(CC)c1-n1nc2c(c1-c1cc(F)c(NC(N)=O)cc1F)CN(CC1(C)COC1)C(C)(C)C2` [Example 1.010] has an IC50 of 5 to 50 nM.
`Cc1cccc(CCC(C)C)c1-n1nc2c(c1-c1ccc(NC(N)=O)cc1)CN(c1ncc(C(F)(F)F)cc1F)CC2` [Example 1.311] gave an IC50 of 5 to 50 nM.
`Cc1cccc(C)c1-n1nc2c(c1-c1cc(F)c(NC(N)=O)cc1F)CN(C(CC(C)(C)O)c1ccccc1)CC2` (centres unmarked) [Example 1.071] was tested, and the IC50 was 5 to 50 nM.
With `COc1cccc(C)c1-n1nc2c(c1-c1ccc(NC3CCCC3)cc1)CN(c1ccccc1C)CC2` [Example 1.490] the IC50 was > 500 nM.
For `Cc1cnc(N2CCc3nn(-c4c(C)cccc4OCC(C)C)c(-c4ccc(NC(N)=O)c(F)c4)c3C2)c(C(F)(F)F)c1` [Example 1.240], the IC50 was ≤ 5 nM.
With `CCc1cccc(CC)c1-n1nc2c(c1-c1cc(F)c(NC(N)=O)cc1F)CN(C(c1ccccc1)C(C)(C)O)CC2` (centres unmarked) [Example 1.080] the IC50 was ≤ 5 nM.
For `Cc1cccc(OCC(C)C)c1-n1nc2c(c1-c1ccc(NC(N)=O)cc1)CN(Cc1ccc(Cl)cc1F)CC2` [Example 1.323], the IC50 was ≤ 5 nM.
`Cc1cccc(OCC(C)C)c1-n1nc2c(c1-c1ccc(NC(N)=O)cc1)CN(c1ccccc1C(C)(C)C)CC2` [Example 1.454] was tested, and the IC50 was ≤ 5 nM.
`CCc1cccc(CC)c1-n1nc2c(c1-c1cc(F)c(NC(N)=O)cc1F)CN(C(C)(C)C)CC2` [Example 1.204] was tested, and the IC50 was 5 to 50 nM.
`Cc1cccc(OCC(C)C)c1-n1nc2c(c1-c1ccc(NC(N)=O)c(F)c1)CN(c1nc(Cl)ns1)CC2` [Example 1.246] showed an IC50 of 5 to 50 nM.
For `Cc1cccc(OCC(C)C)c1-n1nc2c(c1-c1ccc(NC(N)=O)c(F)c1)CN(c1ncc(C(F)(F)F)cc1Cl)CC2` [Example 1.276], the IC50 was ≤ 5 nM.
In the case of `Cc1cccc(C)c1-n1nc2c(c1-c1cc(F)c(NC(=O)CO)cc1F)CN(c1ncc(Cl)cc1Cl)CC2` [Example 1.125], the IC50 is reported as 50 to 500 nM.
For `Cc1cc(Cl)cnc1N1CCc2nn(-c3c(C)cccc3OCC(C)C)c(-c3ccc(NC(N)=O)c(F)c3)c2C1` [Example 1.206], the IC50 was ≤ 5 nM.
`Cc1cccc(OCC(C)C)c1-n1nc2c(c1-c1ccc(NC(N)=O)cc1)CN(Cc1cc(F)ccc1F)CC2` [Example 1.310] showed an IC50 of 5 to 50 nM.
With `CCc1cccc(CC)c1-n1nc2c(c1-c1cc(F)c(NC(N)=O)cc1F)CN(C(C)(C)c1cccc(F)c1)CC2` [Example 1.195] the IC50 was ≤ 5 nM.
With `Cc1cccc(OCC(C)C)c1-n1nc2c(c1-c1ccc(NC(N)=O)cc1)CN(Cc1cc(Cl)ccc1OC(C)C)CC2` [Example 1.280] the IC50 was 5 to 50 nM.
For `CCc1cccc(CC)c1-n1nc2c(c1-c1cc(F)c(NC(N)=O)cc1F)CN(Cc1ccc(Cl)cc1C(F)(F)F)[C@@H](C)C2` [Example 1.015], the IC50 was ≤ 5 nM.
In the case of `CCc1cccc(CC)c1-n1nc2c(c1-c1cc(F)c(NC(N)=O)cc1F)CN(Cc1ccc(C(F)(F)F)cc1)CC2` [Example 1.065], the IC50 is reported as ≤ 5 nM.
In the case of `Cc1cccc(OCC(C)C)c1-n1nc2c(c1-c1cc(F)c(NC(N)=O)cc1F)CN(c1ncc(C(C)C)cc1F)CC2` [Example 1.202], the IC50 is reported as ≤ 5 nM.
Molecule `CCc1cccc(CC)c1-n1nc2c(c1-c1ccc(NC(N)=O)cc1)CN(CC(C)(C)C(F)(F)F)CC2` [Example 1.285] has an IC50 of 5 to 50 nM.
In the case of `Cc1cccc(C)c1-n1nc2c(c1-c1cc(F)c(NC(N)=O)cc1F)CN(c1ncc(C(F)(F)F)cc1F)CC2` [Example 1.174], the IC50 is reported as ≤ 5 nM.
`Cc1cccc(OCC(C)C)c1-n1nc2c(c1-c1ccc(NC(N)=O)c(F)c1)CN(Cc1nccn1C)CC2` [Example 1.233] was tested, and the IC50 was > 500 nM.
In the case of `Cc1cccc(OCC(C)C)c1-n1nc2c(c1-c1cc(F)c(NC(N)=O)cc1F)CN(c1ncccc1F)CC2` [Example 1.178], the IC50 is reported as ≤ 5 nM.
With `Cc1cccc(OCC(C)C)c1-n1nc2c(c1-c1ccc(NC(N)=O)cc1)CN(C(=O)CC(C)(C)C)CC2` [Example 1.435] the IC50 was 50 to 500 nM.
With `Cc1cccc(C)c1-n1nc2c(c1-c1cc(F)c(N)cc1F)CN(c1ncc(Cl)cc1Cl)CC2` [Example 1.120] the IC50 was > 500 nM.
`Cc1ccccc1CN1CCc2nn(-c3c(C)cccc3OCC(C)C)c(-c3ccc(NC(N)=O)cc3)c2C1` [Example 1.371] showed an IC50 of 5 to 50 nM.
`Cc1cccc(C)c1-n1nc2c(c1-c1cc(F)c(NC(N)=O)cc1F)CN(C(C)(C)c1ccccc1)CC2` [Example 1.146] was tested, and the IC50 was ≤ 5 nM.
`CCc1cccc(CC)c1-n1nc2c(c1-c1cc(F)c(NC(N)=O)cc1F)CN(CC(C)(C)C(F)(F)F)CC2` [Example 1.001] was tested, and the IC50 was ≤ 5 nM.
In the case of `Cc1cccc(OCC(C)C)c1-n1nc2c(c1-c1ccc(NC(N)=O)cc1)CN(Cc1ccc(C(F)(F)F)cc1)CC2` [Example 1.345], the IC50 is reported as ≤ 5 nM.
`Cc1ccc(C(C)(C)O)nc1N1CCc2nn(-c3c(C)cccc3OCC(C)C)c(-c3ccc(NC(N)=O)cc3)c2C1` [Example 1.383] gave an IC50 of 50 to 500 nM.
For `CCc1cccc(CC)c1-n1nc2c(c1-c1ccc(NC(N)=O)c(F)c1)CN(C(C)CC(C)C)CC2` (centres unmarked) [Example 1.215], the IC50 was 5 to 50 nM.
Work on `CCc1cccc(CC)c1-n1nc2c(c1-c1cc(F)c(NC(N)=O)cc1F)CN(C(=O)C1CCOCC1)C(C)(C)C2` [Example 1.029] yielded an IC50 of 5 to 50 nM.
In the case of `Cc1cccc(OCC(C)C)c1-n1nc2c(c1-c1ccc(NC(N)=O)cc1)CN(c1ccc(C(C)(C)C)cn1)CC2` [Example 1.370], the IC50 is reported as 5 to 50 nM.
With `Cc1cc(NC(N)=O)ccc1-c1c2c(nn1-c1c(C)cccc1OCC(C)C)CCN(c1cc(C(C)(C)C)ccc1C)C2` [Example 1.441] the IC50 was ≤ 5 nM.
In the case of `Cc1cccc(OCC(C)C)c1-n1nc2c(c1-c1ccc(NC(N)=O)cc1)CN(Cc1ccc(F)cc1Cl)CC2` [Example 1.326], the IC50 is reported as ≤ 5 nM.
`Cc1cc(NC(N)=O)c(F)cc1-c1c2c(nn1-c1c(C)cccc1C)CCN(c1ncc(Cl)cc1Cl)C2` [Example 1.128] was tested, and the IC50 was ≤ 5 nM.
`Cc1cccc(OCC(C)C)c1-n1nc2c(c1-c1ccc(NC(N)=O)cc1)CN(Cc1cccc(C(F)(F)F)c1)CC2` [Example 1.338] showed an IC50 of 5 to 50 nM.
In the case of `CCc1cccc(CC)c1-n1nc2c(c1-c1cc(F)c(NC(N)=O)cc1F)CN(Cc1ccccc1Cl)C(C)(C)C2` [Example 1.007], the IC50 is reported as ≤ 5 nM.
Work on `CCc1cccc(CC)c1-n1nc2c(c1-c1ccc(NC(N)=O)c(F)c1)CN(C(C)C1CCCC1)CC2` (centres unmarked) [Example 1.216] yielded an IC50 of 5 to 50 nM.
`Cc1cccc(OCC(C)C)c1-n1nc2c(c1-c1ccc(NC(N)=O)c(F)c1)CN(c1ncc(C(F)(F)F)cc1F)CC2` [Example 1.288] was tested, and the IC50 was ≤ 5 nM.
For `Cc1cccc(C)c1-n1nc2c(c1-c1ccc(C(N)=O)c(F)c1)CN(c1ncc(Cl)cc1Cl)CC2` [Example 1.110], the IC50 was > 500 nM.
With `CCc1cccc(CC)c1-n1nc2c(c1-c1cc(F)c(NC(N)=O)cc1F)CN(Cc1cc(C(F)(F)F)ccc1C)CC2` [Example 1.036] the IC50 was ≤ 5 nM.
